In brackets after ≈: the same amount, converted by molar mass.

The subject of assay [1] is Mycobacterium tuberculosis. The assay can be described thus: Antitubercular activity against Mycobacterium tuberculosis H37Ra. The class given is functional.
The subject of assay [2] is Vero. The assay can be described thus: Cytotoxicity against African green monkey Vero cells. The class given is cell-based. Conditions: Chlorocebus sabaeus.
Assay [3] relates to Mycobacterium tuberculosis. The assay can be described thus: Antitubercular activity against Mycobacterium tuberculosis H37Ra by GFP based microplate assay. Type of assay: functional.
In assay [4] the test system is Vero. The assay can be described thus: Cytotoxicity against African green monkey Vero cells by GFP based microplate assay. The class given is cell-based. Conditions: Chlorocebus sabaeus.

Molecule `CO[C@@H]1C[C@H]2C(C)(C)[C@@H](OC(C)=O)CC[C@]2(C)C2=C1[C@]1(C)[C@@H](O)C[C@H]([C@H](C)[C@H](C/C=C(\C)C(=O)O)OC(C)=O)[C@@]1(C)CC2` had an MIC in assay [1] of 50 µg/mL (≈ 82.9 µM). This molecule also registered an IC50 in assay [2] of 32 µM.
`CC(=O)O[C@H]1C[C@H]([C@H](C)CC/C=C(\C)C(=O)O)[C@@]2(C)CC=C3C(=CC[C@H]4C(C)(C)[C@H](O)CC[C@]34C)[C@]12C` gave an MIC in assay [3] of 25 µg/mL (≈ 48.8 µM). For the same molecule, half-maximal inhibition in assay [4] (IC50) was put at 94 µM.
`CC(=O)O[C@@H](C/C=C(\C)C(=O)O)[C@@H](C)[C@H]1CC[C@@]2(C)C3=C(CC[C@]12C)[C@@]1(C)CC[C@@H](O)C(C)(C)[C@@H]1CC3=O` had an MIC in assay [3] of 50 µg/mL (≈ 94.6 µM). Moreover, inhibition in assay [4] was half-maximal at 95 µM (IC50).
Consider `CC(=O)O[C@H]1CC[C@]2(C)C3=C([C@H](O)C[C@H]2C1(C)C)[C@]1(C)[C@@H](O)C[C@H]([C@H](C)CC/C=C(\C)C(=O)O)[C@@]1(C)CC3`, for which, in assay [3], the MIC was determined as 50 µg/mL (≈ 94.2 µM). Moreover, the IC50 in assay [4] came out at 39 µM.
For `CC(=O)O[C@@H]1C[C@H]2C(C)(C)C(=O)CC[C@]2(C)C2=C1[C@]1(C)[C@@H](O)C[C@H]([C@H](C)CC/C=C(\C)C(=O)O)[C@@]1(C)CC2`, in that order: 25 µg/mL (≈ 47.3 µM) and greater than 95 µM.
For `CC(=O)O[C@H]1CC[C@]2(C)C3=C([C@H](OC(C)=O)C[C@H]2C1(C)C)[C@]1(C)[C@@H](O)C[C@H]([C@H](C)CC/C=C(\C)C(=O)O)[C@@]1(C)CC3`, in that order: 25 µg/mL (≈ 43.6 µM) and 31 µM.
For `CC(=O)O[C@@H](C/C=C(\C)C(=O)O)[C@@H](C)[C@H]1CC[C@@]2(C)C3=C(CC[C@]12C)[C@@]1(C)CC[C@H](O)C(C)(C)[C@@H]1CC3=O`, in that order: 1.56 µg/mL (≈ 2.95 µM) and 87 µM.
For `C/C(=C\C[C@H](O)[C@@H](C)[C@H]1CC[C@@]2(C)C3=C(CC[C@]12C)[C@@]1(C)CCC(=O)C(C)(C)[C@@H]1CC3)C(=O)O`, the MIC in assay [3] worked out at 50 µg/mL (≈ 106 µM). Further, half-maximal inhibition in assay [4] (IC50) required 105 µM.
The matching figures for `CO[C@@H]1C[C@H]2C(C)(C)C(=O)CC[C@]2(C)C2=C1[C@]1(C)CC[C@H]([C@H](C)CC/C=C(\C)C(=O)O)[C@@]1(C)CC2`: 25 µg/mL (≈ 51.6 µM) and greater than 103 µM.
The matching figures for `CC(=O)O[C@H]1CC[C@]2(C)C3=C(C(=O)C[C@H]2C1(C)C)[C@]1(C)[C@@H](O)C[C@H]([C@H](C)CC/C=C(\C)C(=O)O)[C@@]1(C)CC3`: 50 µg/mL (≈ 94.6 µM) and 92 µM.
Regarding `CC(=O)O[C@H]1C[C@H]([C@H](C)CC/C=C(\C)C(=O)O)[C@@]2(C)CC=C3C(=CC[C@H]4C(C)(C)C(=O)CC[C@]34C)[C@]12C`, the MIC in assay [3] was found to be 12.5 µg/mL (≈ 24.5 µM). This molecule also came in with an IC50 in assay [4] greater than 98 µM.
In assay [3], `CC(=O)O[C@@H](C/C=C(\C)C(=O)O)[C@@H](C)[C@H]1CC[C@@]2(C)C3=C(CC[C@]12C)[C@@]1(C)CC[C@H](OC(C)=O)C(C)(C)[C@@H]1C[C@H]3O` displayed an MIC of 25 µg/mL (≈ 43.6 µM). For the same molecule, the IC50 in assay [4] amounted to 84 µM.
For `CO[C@@H]1C[C@H]2C(C)(C)[C@@H](OC(C)=O)CC[C@]2(C)C2=C1[C@]1(C)[C@@H](OC(C)=O)C[C@H]([C@H](C)CC/C=C(\C)C(=O)O)[C@@]1(C)CC2`, in that order: 3.13 µg/mL (≈ 5.33 µM) and 30 µM.
In turn, `CC(=O)O[C@H]1C[C@H]([C@H](C)CC/C=C(\C)C(=O)O)[C@@]2(C)CCC3=C(CC[C@H]4C(C)(C)[C@@H](O)CC[C@]34C)[C@]12C` showed an MIC in assay [3] of 12.5 µg/mL (≈ 24.3 µM). This molecule also registered an IC50 in assay [4] greater than 96 µM.
Molecule `CC(=O)O[C@@H](C/C=C(\C)C(=O)O)[C@@H](C)[C@H]1CC[C@@]2(C)C3=C(CC[C@]12C)[C@@]1(C)CC[C@H](OC(C)=O)C(C)(C)[C@@H]1CC3=O` displayed an MIC in assay [3] of 6.25 µg/mL (≈ 11 µM). The molecule also came in with an IC50 in assay [4] of 32 µM.
The matching figures for `CO[C@@H]1C[C@H]2C(C)(C)[C@H](OC(C)=O)CC[C@]2(C)C2=C1[C@]1(C)CC[C@H]([C@H](C)[C@H](C/C=C(\C)C(=O)O)OC(C)=O)[C@@]1(C)CC2`: 50 µg/mL (≈ 85.2 µM) and 38 µM.
For the molecule `CC(=O)O[C@@H](C/C=C(\C)C(=O)O)[C@@H](C)[C@H]1C[C@H](O)[C@@]2(C)C3=C(CC[C@]12C)[C@@]1(C)CC[C@H](OC(C)=O)C(C)(C)[C@@H]1C[C@H]3OC(C)=O`, in assay [3], the MIC turned out to be 12.5 µg/mL (≈ 19.8 µM). In addition, inhibition in assay [4] was half-maximal at 77 µM (IC50).
For `CC(=O)O[C@@H](C/C=C(\C)C(=O)O)[C@@H](C)[C@H]1C[C@H](O)[C@@]2(C)C3=CC[C@H]4C(C)(C)[C@@H](O)CC[C@]4(C)C3=CC[C@]12C`, in that order: 6.25 µg/mL (≈ 11.8 µM) and 95 µM.
For `CC(=O)O[C@@H](C/C=C(\C)C(=O)O)[C@@H](C)[C@H]1C[C@H](O)[C@@]2(C)C3=C(CC[C@]12C)[C@@]1(C)CCC(=O)C(C)(C)[C@@H]1C[C@H]3O`, the MIC in assay [3] is greater than 50 µg/mL. Further, the IC50 in assay [4] was greater than 92 µM.
In assay [3], `CC(=O)O[C@H]1CC[C@]2(C)C3=CC[C@]4(C)[C@@H]([C@H](C)CC/C=C(\C)C(=O)O)CC[C@@]4(C)C3=CC[C@H]2C1(C)C` came in with an MIC greater than 50 µg/mL. Besides, the IC50 in assay [4] is greater than 101 µM.
For `CO[C@@H]1C[C@H]2C(C)(C)C(=O)CC[C@]2(C)C2=C1[C@]1(C)[C@@H](OC(C)=O)C[C@H]([C@H](C)[C@H](C/C=C(\C)C(=O)O)OC(C)=O)[C@@]1(C)CC2`, in that order: greater than 50 µg/mL and greater than 83 µM.
Turning to `CC(=O)O[C@H]1C[C@H]([C@H](C)CC/C=C(\C)C(=O)O)[C@@]2(C)CCC3=C(CC[C@H]4C(C)(C)C(=O)CC[C@]34C)[C@]12C`, the MIC in assay [3] turned out to be 50 µg/mL (≈ 97.5 µM). In assay [4], the IC50 is greater than 98 µM.
For `CC(=O)O[C@@H](C/C=C(\C)C(=O)O)[C@@H](C)[C@H]1C[C@H](OC(C)=O)[C@@]2(C)C3=CC[C@H]4C(C)(C)[C@@H](O)CC[C@]4(C)C3=CC[C@]12C`, in that order: greater than 50 µg/mL and 33 µM.
The matching figures for `C/C(=C\CC[C@@H](C)[C@H]1CC[C@@]2(C)C3=C(CC[C@]12C)[C@@]1(C)CCC(=O)C(C)(C)[C@@H]1C[C@H]3O)C(=O)O`: 3.13 µg/mL (≈ 6.65 µM) and 103 µM.
The matching figures for `CC(=O)O[C@H]1CC[C@]2(C)C3=CC[C@]4(C)[C@@H]([C@H](C)CC/C=C(\C)C(=O)O)C[C@H](O)[C@@]4(C)C3=CC[C@H]2C1(C)C`: 6.25 µg/mL (≈ 12.2 µM) and 13 µM.
The molecule `CC(=O)O[C@H]1C[C@H]([C@H](C)CC/C=C(\C)C(=O)O)[C@@]2(C)CCC3=C([C@H](O)C[C@H]4C(C)(C)C(=O)CC[C@]34C)[C@]12C` gave an MIC in assay [3] of 50 µg/mL (≈ 94.6 µM). In assay [4], this molecule yielded an IC50 greater than 95 µM.
For `CO[C@@H]1C[C@H]2C(C)(C)[C@H](OC(C)=O)CC[C@]2(C)C2=C1[C@]1(C)[C@@H](OC(C)=O)C[C@H]([C@H](C)[C@H](C/C=C(\C)C(=O)O)OC(C)=O)[C@@]1(C)CC2`, in that order: 12.5 µg/mL (≈ 19.4 µM) and 26 µM.
In turn, `CC(=O)O[C@@H](C/C=C(\C)C(=O)O)[C@@H](C)[C@H]1C[C@H](OC(C)=O)[C@@]2(C)C3=C(CC[C@]12C)[C@@]1(C)CC[C@@H](OC(C)=O)C(C)(C)[C@@H]1C[C@H]3O` yielded an MIC in assay [3] of 12.5 µg/mL (≈ 19.8 µM). In assay [4], this molecule returned an IC50 of 28 µM.
The matching figures for `CO[C@@H]1C[C@H]2C(C)(C)[C@H](OC(C)=O)CC[C@]2(C)C2=C1[C@]1(C)[C@@H](O)C[C@H]([C@H](C)CC/C=C(\C)C(=O)O)[C@@]1(C)CC2`: 50 µg/mL (≈ 91.8 µM) and 87 µM.
The matching figures for `CC(=O)O[C@@H](C/C=C(\C)C(=O)O)[C@@H](C)[C@H]1CC[C@@]2(C)C3=CC[C@H]4C(C)(C)[C@H](OC(C)=O)CC[C@]4(C)C3=CC[C@]12C`: 50 µg/mL (≈ 90.1 µM) and 32 µM.
For `CO[C@@H]1C[C@H]2C(C)(C)[C@H](OC(C)=O)CC[C@]2(C)C2=C1[C@]1(C)[C@@H](OC(C)=O)C[C@H]([C@H](C)CC/C=C(\C)C(=O)O)[C@@]1(C)CC2`, in that order: 50 µg/mL (≈ 85.2 µM) and greater than 85 µM.
On to `CC(=O)O[C@@H](C/C=C(\C)C(=O)O)[C@@H](C)[C@H]1C[C@H](O)[C@@]2(C)C3=C(CC[C@]12C)[C@@]1(C)CC[C@H](OC(C)=O)C(C)(C)[C@@H]1C[C@H]3O`, for which inhibition of growth in assay [3] (MIC) required 12.5 µg/mL (≈ 21.2 µM). Moreover, in assay [4], the IC50 was determined as 83 µM.
For `CC(=O)O[C@H]1CC[C@]2(C)C3=CC[C@]4(C)[C@@H]([C@H](C)CC/C=C(\C)C(=O)O)C[C@H](OC(C)=O)[C@@]4(C)C3=CC[C@H]2C1(C)C`, in that order: 0.391 µg/mL (≈ 0.705 µM) and 32 µM.
`CC(=O)O[C@@H](C/C=C(\C)C(=O)O)[C@@H](C)[C@H]1C[C@H](OC(C)=O)[C@@]2(C)C3=CC[C@H]4C(C)(C)C(=O)CC[C@]4(C)C3=CC[C@]12C` registered an MIC in assay [3] of 25 µg/mL (≈ 44 µM). The same molecule came in with an IC50 in assay [4] of 87 µM.
